Laboratory results as given in patent US20240423207A1, “PICOLINAMIDE COMPOUNDS WITH FUNGICIDAL ACTIVITY” (CORTEVA AGRISCIENCE LLC, priority 2014, published 2024).
Read-outs that look alike come from different tables or passages of the source.

How the values were obtained:
[1] = system: Mycosphaerella graminicola; Anamorph: Septoria tritici; test: Leaf Blotch of Wheat (SEPTTR) fungicidal activity on wheat seedlings; format: in vivo; details: Zymoseptoria tritici; for pest or weed control at 121.5 g/ha: Low Volume, 121.5 g/H
Protocol: Example A: Evaluation of Fungicidal Activity: Leaf Blotch of Wheat (Mycosphaerella graminicola; Anamorph: Septoria tritici; Bayer code […]): Technical grades of materials were dissolved in acetone, which were then mixed with nine volumes of water (H2O) containing 110 ppm Triton X-100. The fungicide solutions were applied onto wheat seedlings using an automated booth sprayer to run-off. All sprayed plants were allowed to air dry prior to further handling. All fungicides were evaluated using the aforementioned method for their activity vs. all target diseases, unless stated otherwise. Wheat leaf blotch and brown rust activity were also evaluated using track spray applications, in which case the fungicides were formulated as EC formulations, containing 0.1% Trycol 5941 in the spray solutions. Wheat plants (variety Yuma) were grown from seed in a greenhouse in 50% mineral soil/50% soil-less Metro mix until the first leaf was fully emerged, with 7-10 seedlings per pot. These plants were inoculated with an aqueous spore suspension of Septoria tritici either prior to or after fungicide treatments. After inoculation the plants were kept in 100% relative humidity (one day in a dark dew chamber followed by two to three days in a lighted dew chamber at 20° C.) to permit spores to germinate and infect the leaf. The plants were then transferred to a greenhouse set at 20° C. for disease to develop. When disease symptoms were fully expressed on the 1st leaves of untreated plants, infection levels were assessed on a scale of 0 to 100 percent disease severity. Percent disease control was calculated using the ratio of disease severity on treated plants relative to untreated plants.

[2] = system: Puccinia triticina; Synonym: Puccinia recondita f sp. tritici; test: Wheat Brown Rust (PUCCRT) fungicidal activity on wheat seedlings; format: in vivo; details: High Volume, 100 ppm
Protocol: Technical grades of materials were dissolved in acetone, which were then mixed with nine volumes of water (H2O) containing 110 ppm Triton X-100. The fungicide solutions were applied onto wheat seedlings using an automated booth sprayer to run-off. All sprayed plants were allowed to air dry prior to further handling. All fungicides were evaluated using the aforementioned method for their activity vs. all target diseases, unless stated otherwise. Wheat leaf blotch and brown rust activity were also evaluated using track spray applications, in which case the fungicides were formulated as EC formulations, containing 0.1% Trycol 5941 in the spray solutions. Wheat plants (variety Yuma) were grown from seed in a greenhouse in 50% mineral soil/50% soil-less Metro mix until the first leaf was fully emerged, with 7-10 seedlings per pot. These plants were inoculated with an aqueous spore suspension of Septoria tritici either prior to or after fungicide treatments. After inoculation the plants were kept in 100% relative humidity (one day in a dark dew chamber followed by two to three days in a lighted dew chamber at 20° C.) to permit spores to germinate and infect the leaf. The plants were then transferred to a greenhouse set at 20° C. for disease to develop. When disease symptoms were fully expressed on the 1st leaves of untreated plants, infection levels were assessed on a scale of 0 to 100 percent disease severity. Percent disease control was calculated using the ratio of disease severity on treated plants relative to untreated plants. Example B: Evaluation of Fungicidal Activity: Wheat Brown Rust (Puccinia triticina; Synonym: Puccinia recondita f sp. tritici; Bayer code PUCCRT): Wheat plants (variety Yuma) were grown from seed in a greenhouse in 50% mineral soil/50% soil-less Metro mix until the first leaf was fully emerged, with 7-10 seedlings per pot. These plants were inoculated with an aqueous spore suspension of Puccinia triticina either prior to or after fungicide treatments. After inoculation the plants were kept in a dark dew room at 22° C. with 100% relative humidity overnight to permit spores to germinate and infect the leaf. The plants were then transferred to a greenhouse set at 24° C. for disease to develop. Fungicide formulation, application and disease assessment followed the procedures as described in the Example A.

[3] = 24 h, 1 Day Protectant, read-out: PUCCRT 1DP disease control
[4] = 72 h, 3 Day Curative, read-out: PUCCRT 3DC disease control
[5] = 24 h, High Volume, 100 ppm, 1 Day Protectant, read-out: SEPTTR 1DP disease control
[6] = 72 h, High Volume, 100 ppm, 3 Day Curative, read-out: SEPTTR 3DC disease control
[7] = 24 h, 1 Day Protectant, read-out: SEPTTR 1DP disease control
[8] = 72 h, 3 Day Curative, read-out: SEPTTR 3DC disease control

| SMILES | pest or weed control at 100 ppm ([1]; 24 h, read-out: SEPTTR 1DP disease control) [%] | pest or weed control at 100 ppm ([1]; 72 h, read-out: SEPTTR 3DC disease control) [%] | pest or weed control at 100 ppm [2, 3] [%] | pest or weed control at 100 ppm [2, 4] [%] | pest or weed control at 100 ppm [1, 5] [%] | pest or weed control at 100 ppm [1, 6] [%] | pest or weed control at 121.5 g/ha [1, 7] [%] | pest or weed control at 121.5 g/ha [1, 8] [%] |
| --- | --- | --- | --- | --- | --- | --- | --- | --- |
| COc1ccnc(C(=O)N[C@@H](C)C(=O)O[C@@H](C)C(c2ccccc2)c2ccccc2)c1O [Cmpd 90, (S)-(S)-1,1-diphenylpropan-2-yl 2-(3-hydroxy-4-methoxypicolinamido)propanoate] | > 80 | > 80 | > 80 | > 80 |  |  |  |  |
| COc1ccnc(C(=O)N[C@@H](C)C(=O)O[C@@H](C)C(c2cccs2)c2cccs2)c1O [Cmpd 91] |  |  | > 80 | < 80 | > 80 |  |  |  |
| COc1ccnc(C(=O)N[C@@H](C)C(=O)O[C@@H](C)C(c2ccc(F)cc2)c2ccc(F)cc2)c1O [Cmpd 92] |  |  | > 80 | > 80 | > 80 | > 80 |  |  |
| CCOC(c1ccccc1)(c1ccccc1)[C@H](C)OC(=O)[C@H](C)NC(=O)c1nccc(OC)c1O [Cmpd 93] |  |  | < 80 |  | > 80 | < 80 |  |  |
| COc1ccnc(C(=O)N[C@@H](C)C(=O)O[C@@H](C)C(c2ccc(F)cc2F)c2ccc(F)cc2F)c1O [Cmpd 96] |  |  | > 80 | > 80 | > 80 | > 80 |  |  |
| COc1ccnc(C(=O)N[C@@H](C)C(=O)O[C@@H](C)C(F)(c2ccccc2)c2ccccc2)c1O [Cmpd 97] |  |  | < 80 |  | > 80 | > 80 |  |  |
| COc1ccc(C(c2ccc(OC)cc2)[C@H](C)OC(=O)[C@H](C)NC(=O)c2nccc(OC)c2O)cc1 [Cmpd 98] |  |  | > 80 | > 80 | > 80 | > 80 |  |  |
| COc1ccnc(C(=O)N[C@@H](C)C(=O)O[C@@H](C)C(c2cccc(F)c2)c2cccc(F)c2)c1O [Cmpd 99] |  |  | > 80 | < 80 | > 80 | > 80 |  |  |
| COc1ccnc(C(=O)N[C@@H](C)C(=O)O[C@@H](C)C(c2cccc(Cl)c2)c2cccc(Cl)c2)c1O [Cmpd 100] |  |  | > 80 | > 80 | > 80 | > 80 |  |  |
| COc1ccnc(C(=O)N[C@@H](C)C(=O)OC(C)C2c3ccccc3-c3ccccc32)c1O (stereo partly shown) [Cmpd 101] |  |  |  |  | < 80 |  |  |  |
| COc1ccnc(C(=O)N[C@@H](C)C(=O)OC(C)C2c3ccccc3Oc3ccccc32)c1O (stereo partly shown) [Cmpd 102] |  |  | < 80 |  | < 80 | < 80 |  |  |
| COc1ccnc(C(=O)N[C@@H](C)C(=O)O[C@@H](C)C(c2ccc(Br)cc2)c2ccc(Br)cc2)c1O [Cmpd 103] |  |  | > 80 | < 80 | > 80 | > 80 |  |  |
| COc1ccnc(C(=O)N[C@@H](C)C(=O)O[C@@H](C)C(c2ccc(C)s2)c2ccc(C)s2)c1O [Cmpd 104] |  |  | > 80 |  | < 80 | > 80 |  |  |
| COc1ccnc(C(=O)N[C@@H](C)C(=O)O[C@@H](C)C(c2ccc(C)cc2)c2ccc(C)cc2)c1O [Cmpd 105] |  |  | > 80 | > 80 | > 80 | > 80 |  |  |
| COc1ccnc(C(=O)N[C@@H](C)C(=O)O[C@@H](C)[C@@H](c2ccccc2)c2ccc(C(F)(F)F)cc2)c1O [Cmpd 106] |  |  | > 80 |  | > 80 | > 80 |  |  |
| COc1ccnc(C(=O)N[C@@H](C)C(=O)O[C@@H](C)C(c2ccc(Cl)cc2)c2ccc(Cl)cc2)c1O [Cmpd 107] |  |  | > 80 | < 80 | > 80 | > 80 |  |  |

| SMILES | pest or weed control at 100 ppm ([1]; 24 h, read-out: SEPTTR 1DP disease control) [%] | pest or weed control at 100 ppm ([1]; 72 h, read-out: SEPTTR 3DC disease control) [%] | pest or weed control at 100 ppm [2, 3] [%] | pest or weed control at 100 ppm [2, 4] [%] | pest or weed control at 100 ppm [1, 5] [%] | pest or weed control at 100 ppm [1, 6] [%] | pest or weed control at 121.5 g/ha [1, 7] [%] | pest or weed control at 121.5 g/ha [1, 8] [%] |
| --- | --- | --- | --- | --- | --- | --- | --- | --- |
| COc1ccnc(C(=O)N[C@@H](C)C(=O)O[C@@H](C)C(c2ccc(-c3ccccc3)cc2)c2ccc(-c3ccccc3)cc2)c1O [Cmpd 109] |  |  | < 80 |  |  | < 80 |  |  |
| C[C@H](NC(=O)c1ncccc1O)C(=O)O[C@@H](C)C(c1ccc(F)cc1)c1ccc(F)cc1 [Cmpd 110] |  |  | > 80 |  | > 80 | > 80 |  |  |
| CCOc1ccnc(C(=O)N[C@@H](C)C(=O)O[C@@H](C)C(c2ccc(F)cc2)c2ccc(F)cc2)c1O [Cmpd 111] |  |  | < 80 |  | < 80 | > 80 |  |  |
| C[C@H](NC(=O)c1ccccc1O)C(=O)O[C@@H](C)C(c1ccc(F)cc1)c1ccc(F)cc1 [Cmpd 112] |  |  |  |  | < 80 | < 80 |  |  |
| COc1ccnc(C(=O)NCC(=O)O[C@@H](C)C(c2ccc(F)cc2)c2ccc(F)cc2)c1O [Cmpd 113] |  |  | > 80 | < 80 | > 80 | < 80 |  |  |
| CC[C@H](NC(=O)c1nccc(OC)c1O)C(=O)O[C@@H](C)C(c1ccc(F)cc1)c1ccc(F)cc1 [Cmpd 114] |  |  | > 80 | > 80 | > 80 | > 80 |  |  |
| COc1ccnc(C(=O)N[C@H](C(=O)O[C@@H](C)C(c2ccc(F)cc2)c2ccc(F)cc2)C(C)C)c1O [Cmpd 115] |  |  | < 80 |  | > 80 | > 80 |  |  |
| COc1ccnc(C(=O)N[C@@H](C)C(=O)O[C@@H](C)C(O)(c2ccc(Cl)cc2F)c2ccc(Cl)cc2F)c1O [Cmpd 119] |  |  |  |  | > 80 | < 80 |  |  |
| COc1ccnc(C(=O)N[C@@H](C)C(=O)O[C@@H](C)C(O)(c2ccccc2F)c2ccccc2F)c1O [Cmpd 122] |  |  |  |  | < 80 | < 80 |  |  |
| COc1ccnc(C(=O)N[C@@H](C)C(=O)OC(C)C2c3ccccc3-c3ccccc32)c1OC(C)=O (stereo partly shown) [Cmpd 161] |  |  |  |  |  |  | < 80 | > 80 |
| COc1ccnc(C(=O)N[C@@H](C)C(=O)OC(C)C2c3ccccc3Oc3ccccc32)c1OC(C)=O (stereo partly shown) [Cmpd 162] |  |  |  |  |  |  |  | < 80 |
| COc1ccnc(C(=O)N[C@@H](C)C(=O)OC(C)C2c3ccccc3Oc3ccccc32)c1OCOC(C)=O (stereo partly shown) [Cmpd 164] |  |  |  |  |  |  | < 80 |  |
| CC(=O)OCOc1ccccc1C(=O)N[C@@H](C)C(=O)O[C@@H](C)C(c1ccc(F)cc1)c1ccc(F)cc1 [Cmpd 180] |  |  |  |  |  |  | < 80 |  |
| COc1ccnc(C(=O)N[C@@H](C)C(=O)O[C@@H](C)C(c2ccc(-c3ccccc3)cc2)c2ccc(-c3ccccc3)cc2)c1OCOC(C)=O [Cmpd 181] |  |  |  |  |  |  | < 80 | < 80 |
| COc1ccnc(C(=O)N[C@@H](C)C(=O)O[C@@H](C)C(O)(c2ccccc2F)c2ccccc2F)c1OCOC(C)=O [Cmpd 196] |  |  |  |  |  |  | > 80 | < 80 |
| COc1ccnc(C(=O)N[C@@H](C)C(=O)O[C@@H](C)C(O)(c2ccc(Cl)c(F)c2)c2ccc(Cl)c(F)c2)c1OCOC(C)=O [Cmpd 202] |  |  |  |  |  |  | > 80 | > 80 |
